Measured values: US8257915B2, “Farnesyltransferase inhibitors for treatment of laminopathies, cellular aging and atherosclerosis” (Progeria Research Foundation, Inc., priority 2002, dated 2012)
“Also recorded” adds a separate entry of the source.

Assays:
[1] = test system: HeLa cells transfected with wild-type lamin A-CSIM, progerin-CSIM, progerin-SSIM or progerin-CSIL; assay: Nuclear blebbing and GFP localization in transiently transfected HeLa cells treated with FTI; type: cell-based; details: 48 hours
Description: Transient Transfections. Approximately 25,000 cells were plated per chamber of 4-chamber slides (Lab-Tek, Nalge Nunc International, #154526). After twenty-four hours, HeLa and HEK-293 cell lines were transiently transfected with 0.8 μg of each construct using LIPOFECTAMINE®2000 transfection reagent (Invitrogen) under standard conditions.
(§1) FTI Treatment. At the time of transient transfection, HeLa cells were treated with one dose of 0, 0.5, 1.0, or 2.0 μM of the selective FTI lonafarnib [Sarasar, SCH66336, (Schering-Plough)]. HEK-293 cells were treated with one dose of 0, 1, 2, 5, or 10 μM of the selective FTI L-744832 (Biomol). […] These FTIs have the same mechanism of action and can be used interchangeably to inhibit protein farnesylation in vitro. However, only lonafarnib is a clinical candidate. Normal and HGPS fibroblasts were treated with one daily dose of 0, 0.5, 1.0, or 2.0 μM of lonafarnib for 3 days.
GFP Localization and Fluorescence Microscopy. Forty-eight hours following transient transfection, the HeLa and HEK-293 cells were visualized for GFP localization using an LSM510 confocal microscope (Zeiss). Following three-day treatment with lonafarnib, HGPS fibroblasts were washed two times with phosphate-buffered saline (PBS) (pH 7.2) and fixed for 10 minutes at room temperature with 1% paraformaldehyde in PBS. Following three washes with PBS, the cells were permeabilized for 5 minutes at room temperature with 0.5% Triton X-100 in PBS and blocked with 5% horse serum for 30 minutes at room temperature. Cells were then incubated for one hour at room temperature with the primary antibody diluted in blocking solution, a […] mouse anti-human lamin A/C at 1:10 (mAb3211, Chemicon). Three more washes with PBS were then followed by incubation with the secondary antibody, Alexa 488-conjugated donkey anti-mouse IgG (Molecular Probes), for 45 minutes and three additional PBS washes. Slides were then mounted with mounting medium containing DAPI (Vector Laboratories).
Morphometric Analysis. To examine the overall percentage of blebbed cells in cells with different amounts and lengths of FTI treatment, 200 nuclei were classified as either blebbed, if they contained two or more lobulations, or not blebbed, as previously described (Goldman et al., Proc. Natl. Acad. Sci. USA 101:8963-8968, 2004). These classifications were done by three independent observers, all blinded to the specifics of the cells being examined, followed by averaging three independent data sets. Armitage's trend test (Armitage, Biometrics 11:375-386, 1955) was used to test for a dose-dependent response for each cell type.

[2] = test system: HGPS fibroblast lines AG06917, AG11513, AG11498; assay: Nuclear blebbing of HGPS skin fibroblasts treated with FTI; type: cell-based, human; details: once daily 0, 0.5, 1.0, 2.0 μM for three days; p<0.0001
Description: Cell Culture. Cell lines used were the normal human fibroblast line, AG06299, and HGPS fibroblast lines: AG06917, AG11513, and AG11498 (obtained from the NIA Aging Cell Culture Repository, Coriell Institute for Medical Research, Camden, N.J.). Fibroblasts were cultured in minimal essential medium (MEM; Invitrogen/Gibco) supplemented with 15% FBS (HiClone), 2 mM L-glutamine, penicillin (50 U/ml) and streptomycin ([…]). HeLa and HEK-293 cell lines were cultured in DMEM (Invitrogen/Gibco) supplemented with 10% fetal bovine serum and antibiotics.
as §1
GFP Localization and Fluorescence Microscopy. Forty-eight hours following transient transfection, the HeLa and HEK-293 cells were visualized for GFP localization using an LSM510 confocal microscope (Zeiss). […]

[3] = test system: several human cancer cell lines; details: cited from earlier work
[4] = test system: human brain, lung, prostate, pancreas, colon, and bladder tumor xenografts; details: nude mice; cited from earlier work
protein farnesylation = details: Phase I clinical trial; cited from earlier work
BCR/ABL = details: cell culture and mouse models; cited from earlier work
[5] = Phase III trials, including trials involving children; cited from earlier work

Question: For `NC(=O)N1CCC(CC(=O)N2CCC([C@H]3c4ncc(Br)cc4CCc4cc(Cl)cc(Br)c43)CC2)CC1` [lonafarnib], which “change of nuclear blebbing, wild-type lamin A-CSIM” value ([1]; 0 to 2.0 μM) is on record?
Answer: unchanged; also recorded: does not change significantly

Question: What about the “percentage of nuclear blebbing, wild-type lamin A-CSIM” value ([1]; 0 to 2.0 μM) of the same compound?
Answer: approximately 5%

Question: What about the “nuclear blebbing, progerin-CSIM” value ([1]; 2 μM single dose at transfection) of the same compound?
Answer: approaching normal blebbing percentages; also recorded: almost totally abolishes

Question: What about the “localization of progerin, progerin-CSIM” value ([1]; 2 μM) of the same compound?
Answer: relocalization of progerin into nucleoplasmic aggregates

Question: What about the “dose response of nuclear blebbing, progerin-CSIM” value ([1]; single dose 0, 0.5, 1.0, 2.0 μM, p<0.0001) of the same compound?
Answer: dramatic dose-dependent response

Question: And the “nuclear blebbing, progerin-CSIL” value ([1]; up to 2 μM)?
Answer: completely resistant; also recorded: resistant to FTI treatment; also recorded: resistant to inhibition of farnesylation

Question: What about the “phenotype, progerin-SSIM” value ([1]; up to 2 μM) of the same compound?
Answer: no difference; also recorded: does not change significantly

Question: What about the “nuclear blebbing in HGPS fibroblasts” value [2] of the same compound?
Answer: significant dose-dependent reduction; also recorded: reversion of the nuclear blebbing

Question: What about the “proliferation of several human cancer cell lines” value [3] of the same compound?
Answer: inhibit proliferation

Question: What about the “activity against human tumor xenografts” value [4] of the same compound?
Answer: active

Question: What about the “protein farnesylation in vivo” value (protein farnesylation) of the same compound?
Answer: inhibits

Question: What about the tolerability (protein farnesylation) of the same compound?
Answer: generally well tolerated

Question: What about the anti-leukemic activity (BCR/ABL) of the same compound?
Answer: demonstrated

Question: What about the tolerability [5] of the same compound?
Answer: well tolerated
